# According to patent US8273705B2, “Conversion of apoptotic proteins” (The Burnham Institute, priority 2002, dated 2012):
# Like-named read-outs stand apart in the source and are kept apart here.
# What was measured:
# Bcl-2 = target: T1, Bcl-2 (Homo sapiens, UniProt P10415); experiment: GST pull-down assay; assay type: binding
# T1 construct: expressed in transfected cells; host or cells: HEK293T
# Experimental: (§1) TR3/Bcl-2 interaction assays—Reporter gene assays using NurRE-tk-CAT in CV-1 cells, and GST pull-down assay were described previously (Li, et al. 2000 Science 289, 1159-1164). For the mammalian two-hybrid assays, CV-1 cells were co-transfected with pcDNA-Gal4TAD-TR3 or pcDNA-Gal4TAD-TR3/ΔDBD and pcDNA-Gal4DBD-Bcl-2/ΔTM along with a luciferase reporter gene driven by four copies of the Gal4-binding site. The cells were harvested and reporter gene activity was measured. For Co-IP assays, HEK293T cells were transiently transfected with various expression plasmids using a modified calcium phosphate precipitation method (Wu et al, 1997) in the presence of caspase inhibitors (zVAD-fmk) to prevent degradation of TR3 protein due to apoptosis. Cells were suspended in lysis buffer (50 mM Tris-HCl, PH7.4; 150 mM NaCl; 20 mM EDTA; 1% NP-40; 1 mM PMSF; 50 μg/ml Leupeptin; […]; 0.1 mM Na3VO4; and 1 mM DTT). Cells extracts were cleared by incubation with the Protein A/G plus Agarose beads (Santa Cruz) and then incubated with appropriate antibody and 30 μl of Protein A or G plus Agarose beads overnight at 4° C. […] Immunoreactive products were detected by chemiluminescence with an enhanced chemiluminescence system (ECL) (Amersham).
# C. in vitro protein binding assays. […] Bound proteins were analyzed by SDS-PAGE autoradiography. ^35S-labeled Bcl-2 was pulled down by GST-TR3 but not by GST. […]
# TR3 expression [1] = experiment: TR3 expression by Northern blotting in MDA-MB-231 cells; assay type: cell-based; conditions: 3 h, MM11453 and MM11384 10^−6 M, TPA 100 ng/ml, EGF 200 ng/ml
# Experimental: TR3 is also expressed in both estrogen-dependent ZR-75-1 and in estrogen-independent MDA-MB-231 breast cancer cells (Wu et al. 1997 Mol Cell Bio 17:6598-6608). […] Total RNAs were prepared from MDA-MB-231 cells treated with MM1153 (10^−6 M), MM11384 (10^−6M), TPA (100 ng/ml) or EGF (200 ng/ml) for 3 h. and analyzed by Northern blotting.
# MDA-MB-231 cells = experiment: GFP-TR3 subcellular localization by confocal microscopy in MDA-MB-231 cells; assay type: cell-based; conditions: 10^−6 M, 1 hour
# Experimental: Subcellular localization assays—Cells were seeded onto cover-slips in 6-well plates overnight, then transiently transfected with GFP-fusion expression plasmids. After 16 hours, cells were washed with PBS and fixed in 4% paraformaldehyde. For mitochondrial staining, cells were then incubated with anti-Hsp60 goat IgG (Santa Cruz, USA), followed by anti-goat IgG conjugated with Cy3 (Sigma). For cyt c staining, cells were incubated with monoclonal anti-cyt c IgG (PharMingen), followed by anti-mouse IgG conjugated with Cy5 (Amersham). Fluorescent images were collected and analyzed using a MRC-1024 MP laser-scanning confocal microscope (Bio-Rad). Subcellular fractionation assays were performed as described (Li, et al. 2000 Science 289:1159-1164). Briefly, cells (1×10^7 cells) suspended in 0.5 ml hypotonic buffer (5 mM Tris-HCl, pH 7.4, 5 mM KCl, 1.5 mM MgCl2, 0.1 mM EGTA, pH 8.0, and 1 mM DTT) were homogenized and cell extracts were centrifuged at 500×g for 5 min. […]
# To study whether the TR3 nuclear-to-mitochondrial targeting pathway also occurs in breast cancer cells, a GFP-TR3 fusion construct was transfected into MDA-MB-231 cells. […] Next, GFP-TR3/ΔDBD was transiently transfected into ZR-75-1 or MDA-MB-231 cells, stained for mitochondria (Hsp60) and cytochrome c (Cyt c), and analyzed by confocal microscopy.
# TR3 expression [2] = conditions: human prostate cancer cells; cited from earlier work
# [3] = tested on: estrogen-dependent and -independent breast cancer cells; conditions: estrogen-dependent and -independent cell lines; cited from earlier work
# prostate cancer cells = conditions: cited from earlier work
# [4] = tested on: lung and breast cancer cells; conditions: cited from earlier work
# TR3 expression [5] = conditions: lung cancer cells; cited from earlier work
# Bcl-2/ΔTM = target: T2, Bcl-2/ΔTM (Homo sapiens, UniProt P10415); experiment: Mammalian two-hybrid assay in CV-1 cells; assay type: cell-based; conditions: Gal-TAD fusion co-expressed with Gal4-DBD-Bcl-2/ΔTM, 48 h
# T2 construct: expressed in transfected cells; host or cells: CV-1
# Experimental: as §1, with “DTT).” for “DTT). Cells extracts were cleared by incubation with the Protein A/G plus Agarose beads (Santa Cruz) and then incubated with appropriate antibody and 30 μl of Protein A or G plus Agarose beads overnight at 4° C.”
# E. Two-hybrid assay—a two-hybrid assay was performed to assess the interaction of TR3 and Bcl-2. […] Reporter gene activity was determined 48 h later and normalized relative to β-gal activity.
# [6] = tested on: LNCaP prostate cancer cells; experiment: Colocalization of endogenous TR3 and transfected Bcl-2 in LNCaP cells; assay type: cell-based; conditions: TPA 100 ng/ml, 3 h
# Experimental: D. co-localization in cells—First the interaction of endogenous TR3 and transfected Bcl-2 colocalization was identified in cells. The phorbol ester 12-0-tetradecanoyl phorbol-13-acetate (TPA) induces the expression of endogenous TR3 and its mitochondrial localization in LNCaP prostate cancer cells. LNCaP cells were transfected with Bcl-2 expression vector, treated with or without TPA (100 ng/ml) for 3 h, then immunostained with anti-Bcl-2 antibody (Santa Cruz) followed by Cy5-conjugated secondary antibody (Amersham Biosciences), or with mouse monoclonal anti-TR3 antibody followed by Cy3-conjugated secondary antibody (Sigma). Endogenous TR3 and transfected Bcl-2 were visualized using confocal microscopy and images were overlaid. […] TR3 was not detected prior to TPA treatment. […] In TPA-stimulated cells, the distribution patterns of endogenous TR3 and transfected Bcl-2 overlapped extensively in the cytoplasm, colocalizing with Hsp60, a mitochondria-specific protein.
# TR3/Bcl-2 interaction = experiment: Co-IP of endogenous TR3 and Bcl-2 in LNCaP cells; assay type: cell-based; conditions: TPA 3 hours
# Experimental: A. co-immunoprecipitation assays—to identify the interaction between TR3 and Bcl-2, a monoclonal antibody was generated against the ligand-binding domain (GBD) of TR3 for co-immunoprecipitation (Co-IP) assays. LNCaP cells were treated with TPA to induce endogenous TR3 expression for 3 hours. Cell extracts were prepared from TPA-treated and non-treated cells and incubated with mouse monoclonal anti-TR3 antibody. Immunoblotting of immunoprecipitates employed anti-Bcl-2 antibody or rabbit polyclonal anti-TR3 anti-body (Active Motif).
# T1 sequence (P10415 whole entry): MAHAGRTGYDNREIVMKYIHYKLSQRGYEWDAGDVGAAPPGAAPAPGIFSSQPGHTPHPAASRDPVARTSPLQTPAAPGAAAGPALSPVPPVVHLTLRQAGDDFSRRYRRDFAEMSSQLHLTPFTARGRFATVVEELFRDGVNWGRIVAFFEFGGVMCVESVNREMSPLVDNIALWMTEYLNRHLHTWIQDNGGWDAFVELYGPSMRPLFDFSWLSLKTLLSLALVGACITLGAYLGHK
# T2 sequence (P10415 1-204 limits assumed, stated change not applied): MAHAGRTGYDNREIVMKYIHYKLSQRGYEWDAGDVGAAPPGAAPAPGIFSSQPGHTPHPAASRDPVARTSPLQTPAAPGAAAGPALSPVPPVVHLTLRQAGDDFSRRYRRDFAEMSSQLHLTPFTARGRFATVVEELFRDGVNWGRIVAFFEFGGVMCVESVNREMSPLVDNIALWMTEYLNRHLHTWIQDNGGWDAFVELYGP
compound,measurement,setting,value
GST-TR3: GST fusion of TR3 immobilized on glutathione-Sepharose,binding of ^35S-labeled Bcl-2,Bcl-2,pulled down
"Cc1cc2c(cc1/C=C(\Br)C(=O)c1ccc(C(=O)O)cc1)C(C)(C)CCC2(C)C [MM11384, (Z)-4-[2-bromo-3-(5,6,7,8-tetrahydro-3,5,5,8,8-pentamethyl-2-naphthalenyl)propenoyl]benzoic acid]",TR3 expression,TR3 expression [1],induced
same,GFP-TR3 subcellular localization,MDA-MB-231 cells,translocated to mitochondria
same,TR3 expression,TR3 expression [2],induced TR3 expression
COc1cc([C@@H]2c3cc4c(cc3[C@@H](O[C@@H]3O[C@@H]5CO[C@@H](C)O[C@H]5[C@H](O)[C@H]3O)[C@H]3COC(=O)[C@H]23)OCO4)cc(OC)c1O [VP-16],TR3 expression,TR3 expression [2],induced TR3 expression
"O=C(O)c1cc2ccc(-c3ccc(O)c(C45CC6CC(CC(C6)C4)C5)c3)cc2cc1Cl [MM11453, 6-[3-(1-adamantyl)-4-hydroxyphenyl]-3-chloro-2-naphthalenecarboxylic acid]",TR3 expression,TR3 expression [1],significantly induced
same,GFP-TR3 subcellular localization,MDA-MB-231 cells,translocated to mitochondria
same,TR3 expression,TR3 expression [2],induced TR3 expression
same,apoptosis of breast cancer cells,[3],effectively induces apoptosis
"O=C(O)c1ccc2cc(-c3ccc(O)c(C45CC6CC(CC(C6)C4)C5)c3)ccc2c1 [AHPN, 6-[3-(1-adamantyl)-4-hydroxyphenyl]-2-naphthalene carboxylic acid]",apoptosis of prostate cancer cells,prostate cancer cells,potently induces apoptosis
same,apoptosis of lung and breast cancer cells,[4],effectively induce apoptosis
same,TR3 expression,TR3 expression [5],significantly induced
same,apoptosis of breast cancer cells,[3],effectively induces apoptosis
"TR3: orphan receptor TR3, nuclear transcription factor",Gal4 reporter gene activity,Bcl-2/ΔTM,strongly activated
CNc1ccc2oc(C[C@H]3O[C@@]4(CC[C@H]3C)O[C@H]([C@H](C)C(=O)c3ccc[nH]3)[C@H](C)C[C@H]4C)nc2c1C(=O)O [A23187],TR3 expression,TR3 expression [2],induced TR3 expression
EGF: the mitogenic agent epidermal growth factor,TR3 expression,TR3 expression [1],induced
"CCCCCCCCCCCCCC(=O)O[C@@H]1[C@@H](C)[C@@]2(O)[C@@H](C=C(CO)C[C@]3(O)C(=O)C(C)=C[C@@H]23)[C@@H]2C(C)(C)[C@]12OC(C)=O [TPA, 12-O-tetradecanoyl phorbol-13-acetate]",TR3 expression,TR3 expression [1],induced
same,TR3 immunostaining,[6],strong TR3 immunostaining
same,cells demonstrating colocalization of endogenous TR3 and transfected Bcl-2,[6],Approximately 80%
same,co-immunoprecipitation of Bcl-2 by anti-TR3 antibody,TR3/Bcl-2 interaction,specifically co-immunoprecipitated
same,TR3 expression,TR3 expression [2],induced TR3 expression
